Laboratory results taken from ChEMBL document CHEMBL3091421, “Discovery of benzo[d]imidazo[5,1-b]thiazole as a new class of phosphodiesterase 10A inhibitors” (Bioorg Med Chem Lett, 2013).

Legend:
[1] = species: Homo sapiens; test: Selectivity ratio of IC50 for PDE4D (unknown origin) to IC50 for human recombinant PDE10A
[2] = Metabolic stability in rat liver microsomes assessed as compound remaining after 60 mins; type: ADME; conditions: read-out: Stability
[3] = species: Homo sapiens; test: Selectivity ratio of IC50 for PDE1A (unknown origin) to IC50 for human recombinant PDE10A
[4] = target: cGMP-inhibited 3',5'-cyclic phosphodiesterase 3A (Homo sapiens) (UniProt Q14432); test: Inhibition of PDE3A (unknown origin) using cAMP as substrate at 10 uM after 30 mins by HTRF method
[5] = Cmax in Sprague-Dawley rat at 10 mg/kg, po by LC-MS/MS analysis; type: ADME, organism-based; set-up: dose 10 mg/kg, route oral; conditions: in vivo
[6] = tested on: Rattus norvegicus; test: Antipsychotic activity in Sprague-Dawley rat psychosis model assessed as inhibition of MK-801-induced hyperlocomotion at 10 mg/kg, ip administered 5 mins prior to MK-801-challenge measured after 15 mins up to 1 hr; type: functional; conditions: route intraperitoneal
[7] = target: Dual 3',5'-cyclic-AMP and -GMP phosphodiesterase 11A (Homo sapiens) (UniProt Q9HCR9); test: Inhibition of PDE11A (unknown origin) using [3H]-cAMP as substrate at 10 uM after 30 mins by radiometric assay
[8] = tested on: Rattus norvegicus; test: Antipsychotic activity in ip dosed Sprague-Dawley rat psychosis model assessed as inhibition of MK-801-induced stereotypy administered 5 mins prior to MK-801-challenge measured after 15 mins up to 1 hr relative to vehicle-treated control; type: functional, organism-based
[9] = tested on: Rattus norvegicus; test: Antipsychotic activity in Sprague-Dawley rat psychosis model assessed as inhibition of MK-801-induced hyperlocomotion at 30 mg/kg, po administered 5 mins prior to MK-801-challenge measured after 15 mins up to 1 hr; type: functional
[10] = species: Homo sapiens; test: Selectivity ratio of IC50 for PDE7A1 (unknown origin) to IC50 for human recombinant PDE10A
[11] = target: High affinity cAMP-specific and IBMX-insensitive 3',5'-cyclic phosphodiesterase 8A (Homo sapiens) (UniProt O60658); test: Inhibition of PDE8A (unknown origin) using [3H]-cAMP as substrate at 10 uM after 30 mins by radiometric assay
[12] = tested on: Rattus norvegicus; test: Antipsychotic activity in Sprague-Dawley rat assessed as reduction in quipazine-induced head-twitches at 6 mg/kg, ip administered 15 mins prior to quipazine-challenge measured immediately relative to vehicle-treated control; type: functional; set-up: scale not given: the % may be the effect or the level left; conditions: route intraperitoneal
[13] = tested on: Rattus norvegicus; test: Antipsychotic activity in ip dosed Sprague-Dawley rat assessed as reduction in quipazine-induced head-twitches administered 15 mins prior to quipazine-challenge measured immediately relative to vehicle-treated control; type: functional
[14] = tested on: Rattus norvegicus; test: Antipsychotic activity in Sprague-Dawley rat assessed as reduction in quipazine-induced head-twitches at 1 mg/kg, ip administered 15 mins prior to quipazine-challenge measured immediately relative to vehicle-treated control; type: functional; set-up: scale not given: the % may be the effect or the level left; conditions: route intraperitoneal
[15] = tested on: Rattus norvegicus; test: Antipsychotic activity in Sprague-Dawley rat psychosis model assessed as inhibition of MK-801-induced locomotion at 3 mg/kg, ip administered 5 mins prior to MK-801-challenge measured after 15 mins up to 1 hr relative to vehicle-treated control; type: functional; conditions: route intraperitoneal
[16] = tested on: Rattus norvegicus; test: Antipsychotic activity in Sprague-Dawley rat psychosis model assessed as inhibition of MK-801-induced ataxia at 3 mg/kg, ip administered 5 mins prior to MK-801-challenge measured after 15 mins up to 1 hr relative to vehicle-treated control; type: functional; conditions: route intraperitoneal
[17] = target: High affinity cGMP-specific 3',5'-cyclic phosphodiesterase 9A (Homo sapiens) (UniProt O76083); test: Inhibition of PDE9A2 (unknown origin) using [3H]-cGMP as substrate at 10 uM after 30 mins by radiometric assay
[18] = tested on: Rattus norvegicus; test: Antipsychotic activity in Sprague-Dawley rat psychosis model assessed as inhibition of MK-801-induced locomotion at 0.3 mg/kg, ip administered 5 mins prior to MK-801-challenge measured after 15 mins up to 1 hr relative to vehicle-treated control; type: functional; conditions: route intraperitoneal
[19] = Metabolic stability in human liver microsomes assessed as compound remaining after 60 mins; type: ADME; conditions: read-out: Stability
[20] = tested on: Rattus norvegicus; test: Antipsychotic activity in Sprague-Dawley rat psychosis model assessed as inhibition of MK-801-induced locomotion at 6 mg/kg, ip administered 5 mins prior to MK-801-challenge measured after 15 mins up to 1 hr relative to vehicle-treated control; type: functional; conditions: route intraperitoneal
[21] = target: High affinity 3',5'-cyclic-AMP phosphodiesterase 7A (Homo sapiens) (UniProt Q13946); test: Inhibition of PDE7A1 (unknown origin) using [3H]-cAMP as substrate at 10 uM after 30 mins by radiometric assay
[22] = target: Dual specificity calcium/calmodulin-dependent 3',5'-cyclic nucleotide phosphodiesterase 1A (Homo sapiens) (UniProt P54750); test: Inhibition of PDE1A (unknown origin) at 10 uM
[23] = Plasma concentration in Sprague-Dawley rat at 10 mg/kg, po after 30 mins; type: ADME, organism-based; set-up: dose 10 mg/kg, route oral
[24] = tested on: Rattus norvegicus; test: Antipsychotic activity in ip dosed Sprague-Dawley rat psychosis model assessed as inhibition of MK-801-induced locomotion administered 5 mins prior to MK-801-challenge measured after 15 mins up to 1 hr relative to vehicle-treated control; type: functional
[25] = tested on: Rattus norvegicus; test: Antipsychotic activity in Sprague-Dawley rat psychosis model assessed as inhibition of MK-801-induced locomotion at 1 mg/kg, ip administered 5 mins prior to MK-801-challenge measured after 15 mins up to 1 hr relative to vehicle-treated control; type: functional; conditions: route intraperitoneal
[26] = tested on: Rattus norvegicus; test: Antipsychotic activity in Sprague-Dawley rat psychosis model assessed as inhibition of MK-801-induced ataxia at 0.3 mg/kg, ip administered 5 mins prior to MK-801-challenge measured after 15 mins up to 1 hr relative to vehicle-treated control; type: functional; conditions: route intraperitoneal
[27] = target: cAMP and cAMP-inhibited cGMP 3',5'-cyclic phosphodiesterase 10A (Homo sapiens, UniProt Q9Y233); test: Inhibition of human recombinant PDE10A using [3H]-cAMP/[3H]-cGMP as substrate after 30 mins by radiometric assay
[28] = target: 3',5'-cyclic-AMP phosphodiesterase 4D (Homo sapiens) (UniProt Q08499); test: Inhibition of PDE4D (unknown origin) using cAMP as substrate at 10 uM after 30 mins
[29] = tested on: Rattus norvegicus; test: Antipsychotic activity in Sprague-Dawley rat psychosis model assessed as inhibition of MK-801-induced ataxia at 1 mg/kg, ip administered 5 mins prior to MK-801-challenge measured after 15 mins up to 1 hr relative to vehicle-treated control; type: functional; conditions: route intraperitoneal
[30] = tested on: Mus musculus; test: Antipsychotic activity in ip dosed CD-1 mouse assessed as reduction in apomorphine-induced sniffing behavior administered 15 mins prior to apomorphine-challenge measured immediately relative to vehicle-treated control; type: functional; conditions: CD-1, ip
[31] = tested on: Rattus norvegicus; test: Antipsychotic activity in ip dosed Sprague-Dawley rat conditioned avoidance response model assessed as reduction in avoidance after 15 mins relative to vehicle-treated control; type: functional
[32] = AUC (0 to 24 hrs) in Sprague-Dawley rat at 10 mg/kg, po by LC-MS/MS analysis; type: ADME, organism-based; set-up: time < 24 hr, dose 10 mg/kg, route oral; conditions: plasma
[33] = species: Homo sapiens; test: Selectivity ratio of IC50 for PDE9A2 (unknown origin) to IC50 for human recombinant PDE10A

cAMP and cAMP-inhibited cGMP 3',5'-cyclic phosphodiesterase 10A, sequence (Q9Y233 whole entry): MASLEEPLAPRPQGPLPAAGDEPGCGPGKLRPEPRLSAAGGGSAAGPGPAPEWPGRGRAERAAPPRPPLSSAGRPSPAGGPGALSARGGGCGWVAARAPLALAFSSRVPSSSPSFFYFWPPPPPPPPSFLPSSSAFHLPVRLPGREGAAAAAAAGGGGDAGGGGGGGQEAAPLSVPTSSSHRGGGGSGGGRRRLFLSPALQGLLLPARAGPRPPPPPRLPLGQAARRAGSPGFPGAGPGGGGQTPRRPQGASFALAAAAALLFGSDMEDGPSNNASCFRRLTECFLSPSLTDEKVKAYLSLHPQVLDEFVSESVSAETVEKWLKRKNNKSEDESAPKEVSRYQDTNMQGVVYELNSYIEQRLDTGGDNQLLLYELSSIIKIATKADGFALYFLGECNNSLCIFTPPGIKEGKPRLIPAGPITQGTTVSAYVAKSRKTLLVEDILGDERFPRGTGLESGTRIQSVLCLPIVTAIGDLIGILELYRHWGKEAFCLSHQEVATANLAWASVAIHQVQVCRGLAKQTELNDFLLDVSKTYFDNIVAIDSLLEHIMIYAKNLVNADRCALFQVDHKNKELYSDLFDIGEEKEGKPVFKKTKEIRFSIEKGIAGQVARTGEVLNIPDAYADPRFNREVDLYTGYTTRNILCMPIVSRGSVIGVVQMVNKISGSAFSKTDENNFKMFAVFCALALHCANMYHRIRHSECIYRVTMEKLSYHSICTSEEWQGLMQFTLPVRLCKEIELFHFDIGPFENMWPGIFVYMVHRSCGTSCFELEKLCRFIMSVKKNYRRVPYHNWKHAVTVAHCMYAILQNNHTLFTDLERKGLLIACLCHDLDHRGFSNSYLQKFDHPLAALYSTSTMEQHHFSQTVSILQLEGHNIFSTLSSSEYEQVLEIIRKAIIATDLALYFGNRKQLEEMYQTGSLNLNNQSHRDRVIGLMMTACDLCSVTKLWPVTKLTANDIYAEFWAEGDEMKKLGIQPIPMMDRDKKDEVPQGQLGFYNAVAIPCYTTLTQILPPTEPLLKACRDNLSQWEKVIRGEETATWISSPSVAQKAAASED
High affinity cGMP-specific 3',5'-cyclic phosphodiesterase 9A (Homo sapiens), sequence (O76083 whole entry): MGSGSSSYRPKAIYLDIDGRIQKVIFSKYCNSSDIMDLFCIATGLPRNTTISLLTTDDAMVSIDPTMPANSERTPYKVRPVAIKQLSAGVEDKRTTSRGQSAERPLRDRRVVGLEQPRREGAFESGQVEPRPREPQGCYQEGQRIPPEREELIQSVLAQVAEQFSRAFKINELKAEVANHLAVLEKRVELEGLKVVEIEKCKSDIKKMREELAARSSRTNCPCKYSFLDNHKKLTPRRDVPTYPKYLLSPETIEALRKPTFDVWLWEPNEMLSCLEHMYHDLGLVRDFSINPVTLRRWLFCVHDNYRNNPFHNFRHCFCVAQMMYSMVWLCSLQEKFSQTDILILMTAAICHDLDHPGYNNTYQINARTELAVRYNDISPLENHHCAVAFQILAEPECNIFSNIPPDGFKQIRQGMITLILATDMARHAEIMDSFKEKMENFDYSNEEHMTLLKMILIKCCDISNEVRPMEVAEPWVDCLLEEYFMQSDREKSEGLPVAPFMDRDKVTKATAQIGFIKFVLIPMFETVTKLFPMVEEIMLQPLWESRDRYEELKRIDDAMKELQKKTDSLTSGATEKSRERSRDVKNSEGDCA
Dual specificity calcium/calmodulin-dependent 3',5'-cyclic nucleotide phosphodiesterase 1A (Homo sapiens), sequence (P54750 whole entry): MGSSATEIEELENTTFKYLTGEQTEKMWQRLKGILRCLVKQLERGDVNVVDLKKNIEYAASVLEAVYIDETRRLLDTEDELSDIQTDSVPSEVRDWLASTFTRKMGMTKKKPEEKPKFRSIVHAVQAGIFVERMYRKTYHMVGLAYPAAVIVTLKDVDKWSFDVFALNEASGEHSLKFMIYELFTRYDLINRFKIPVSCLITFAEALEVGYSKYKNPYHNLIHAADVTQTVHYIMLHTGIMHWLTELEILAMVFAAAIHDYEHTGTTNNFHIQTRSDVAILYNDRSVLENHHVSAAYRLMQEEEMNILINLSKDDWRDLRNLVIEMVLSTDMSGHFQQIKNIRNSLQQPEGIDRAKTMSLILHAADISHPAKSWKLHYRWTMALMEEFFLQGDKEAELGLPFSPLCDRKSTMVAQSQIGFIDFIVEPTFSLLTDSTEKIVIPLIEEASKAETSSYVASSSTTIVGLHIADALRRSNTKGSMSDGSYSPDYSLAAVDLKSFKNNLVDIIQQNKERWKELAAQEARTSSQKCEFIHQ
High affinity cAMP-specific and IBMX-insensitive 3',5'-cyclic phosphodiesterase 8A (Homo sapiens), sequence (O60658 whole entry): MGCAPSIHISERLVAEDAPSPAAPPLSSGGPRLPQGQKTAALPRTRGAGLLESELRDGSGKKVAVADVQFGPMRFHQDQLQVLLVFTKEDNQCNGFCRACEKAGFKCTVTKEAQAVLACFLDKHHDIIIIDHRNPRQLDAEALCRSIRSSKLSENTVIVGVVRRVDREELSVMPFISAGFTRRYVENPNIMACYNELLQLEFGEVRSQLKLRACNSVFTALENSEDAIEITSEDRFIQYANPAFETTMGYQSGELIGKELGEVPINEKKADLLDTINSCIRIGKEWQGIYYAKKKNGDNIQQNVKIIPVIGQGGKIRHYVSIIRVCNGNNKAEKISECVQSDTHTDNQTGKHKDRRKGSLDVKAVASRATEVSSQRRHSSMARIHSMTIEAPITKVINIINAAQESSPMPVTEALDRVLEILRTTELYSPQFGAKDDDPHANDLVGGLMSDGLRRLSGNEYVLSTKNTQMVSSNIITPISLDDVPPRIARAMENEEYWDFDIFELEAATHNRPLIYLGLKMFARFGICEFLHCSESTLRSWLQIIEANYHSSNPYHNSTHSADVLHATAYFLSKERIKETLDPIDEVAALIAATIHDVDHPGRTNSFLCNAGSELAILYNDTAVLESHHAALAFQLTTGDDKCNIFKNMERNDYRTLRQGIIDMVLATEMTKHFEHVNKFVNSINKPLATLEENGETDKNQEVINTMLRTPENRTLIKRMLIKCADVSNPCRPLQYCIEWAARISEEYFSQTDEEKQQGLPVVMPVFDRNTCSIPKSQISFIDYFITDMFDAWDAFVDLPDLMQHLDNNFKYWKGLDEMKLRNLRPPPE
cGMP-inhibited 3',5'-cyclic phosphodiesterase 3A (Homo sapiens), sequence (Q14432 whole entry): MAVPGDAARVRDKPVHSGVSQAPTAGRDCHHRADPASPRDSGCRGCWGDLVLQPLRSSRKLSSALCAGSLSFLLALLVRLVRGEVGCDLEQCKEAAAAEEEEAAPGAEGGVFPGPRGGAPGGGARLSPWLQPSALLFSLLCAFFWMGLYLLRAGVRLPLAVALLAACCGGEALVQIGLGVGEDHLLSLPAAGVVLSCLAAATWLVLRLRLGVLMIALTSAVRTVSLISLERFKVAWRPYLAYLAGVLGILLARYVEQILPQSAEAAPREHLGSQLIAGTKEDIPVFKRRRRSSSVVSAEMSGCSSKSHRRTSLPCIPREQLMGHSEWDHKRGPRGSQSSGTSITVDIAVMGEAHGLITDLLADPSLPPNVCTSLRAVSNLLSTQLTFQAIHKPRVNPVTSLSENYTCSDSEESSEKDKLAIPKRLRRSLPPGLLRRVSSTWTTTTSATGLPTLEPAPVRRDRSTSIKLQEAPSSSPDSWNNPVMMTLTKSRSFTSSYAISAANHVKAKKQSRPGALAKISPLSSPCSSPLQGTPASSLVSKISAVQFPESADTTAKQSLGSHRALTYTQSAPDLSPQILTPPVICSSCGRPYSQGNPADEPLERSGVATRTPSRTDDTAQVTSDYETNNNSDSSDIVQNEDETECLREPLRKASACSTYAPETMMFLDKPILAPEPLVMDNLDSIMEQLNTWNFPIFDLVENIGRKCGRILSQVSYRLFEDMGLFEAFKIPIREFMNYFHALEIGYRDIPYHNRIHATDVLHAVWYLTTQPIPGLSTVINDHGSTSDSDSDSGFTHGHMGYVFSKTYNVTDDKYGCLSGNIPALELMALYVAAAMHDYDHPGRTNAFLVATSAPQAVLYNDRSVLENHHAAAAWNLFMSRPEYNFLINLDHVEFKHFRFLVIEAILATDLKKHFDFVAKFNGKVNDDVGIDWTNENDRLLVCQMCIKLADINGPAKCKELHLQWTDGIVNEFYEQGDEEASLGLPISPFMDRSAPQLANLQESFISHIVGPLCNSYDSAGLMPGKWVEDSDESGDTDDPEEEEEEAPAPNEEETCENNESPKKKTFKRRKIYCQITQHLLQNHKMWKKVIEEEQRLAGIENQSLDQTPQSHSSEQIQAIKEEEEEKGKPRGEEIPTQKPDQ
3',5'-cyclic-AMP phosphodiesterase 4D (Homo sapiens), sequence (Q08499 whole entry): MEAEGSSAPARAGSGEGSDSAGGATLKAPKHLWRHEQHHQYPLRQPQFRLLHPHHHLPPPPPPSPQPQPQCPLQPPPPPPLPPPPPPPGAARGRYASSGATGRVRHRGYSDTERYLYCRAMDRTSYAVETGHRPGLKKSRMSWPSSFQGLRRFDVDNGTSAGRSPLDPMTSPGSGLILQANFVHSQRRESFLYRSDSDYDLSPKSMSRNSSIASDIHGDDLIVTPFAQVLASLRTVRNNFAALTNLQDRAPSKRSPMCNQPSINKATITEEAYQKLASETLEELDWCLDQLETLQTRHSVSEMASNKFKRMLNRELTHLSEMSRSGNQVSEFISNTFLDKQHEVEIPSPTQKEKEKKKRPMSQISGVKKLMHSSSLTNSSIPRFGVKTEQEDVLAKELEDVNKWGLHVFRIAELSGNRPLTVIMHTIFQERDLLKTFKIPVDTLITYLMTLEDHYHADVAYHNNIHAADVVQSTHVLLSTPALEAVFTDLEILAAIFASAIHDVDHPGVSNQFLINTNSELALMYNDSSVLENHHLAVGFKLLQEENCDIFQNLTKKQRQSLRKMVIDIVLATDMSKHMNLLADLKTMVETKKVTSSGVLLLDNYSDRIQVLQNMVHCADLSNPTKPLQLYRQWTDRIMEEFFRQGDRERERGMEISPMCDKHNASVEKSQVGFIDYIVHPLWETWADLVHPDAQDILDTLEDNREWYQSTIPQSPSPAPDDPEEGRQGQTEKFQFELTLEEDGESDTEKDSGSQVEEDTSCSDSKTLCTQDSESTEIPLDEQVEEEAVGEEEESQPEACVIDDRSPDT

## Cc1nc(C2CCOCC2)n2c1sc1cc(OCc3ccc4ccccc4n3)ccc12
[1]
  Ratio IC50: > 500
[2]
  remaining at 1 h: 65%
[3]
  Ratio IC50: > 500
[4]
  inhibition: 11.3%
[5]
  Cmax: 720 ng/mL
[6]
  inhibition in vivo at 10 mg/kg: 92%
[7]
  inhibition: 19.2%
[8]
  inhibition: Dose-dependent effect
[9]
  inhibition in vivo at 30 mg/kg: 75%
[10]
  Ratio IC50: > 500
[11]
  inhibition: 18.5%
[12]
  Activity: 76%
[13]
  ED50: 1.27 mg/kg
[14]
  Activity: 47%
[15]
  inhibition in vivo at 3 mg/kg: 58%
[16]
  inhibition in vivo at 3 mg/kg: 56%
[17]
  inhibition: 16.5%
[18]
  inhibition in vivo at 0.3 mg/kg: 13%
[19]
  remaining at 1 h: 57%
[20]
  inhibition in vivo at 6 mg/kg: 76%
[21]
  inhibition: 44%
[22]
  inhibition: 62.4%
[23]
  concentration at 0.5 h: 370 ng/mL
[24]
  ED50: 1.44 mg/kg
  inhibition: Dose-dependent effect
[25]
  inhibition in vivo at 1 mg/kg: 41%
[26]
  inhibition in vivo at 0.3 mg/kg: 3%
[27]
  IC50: 7.45 nM
[28]
  inhibition: 0%
[29]
  inhibition in vivo at 1 mg/kg: 10%
[30]
  ED50: 16.3 mg/kg
[31]
  Activity: Dose-dependent effect
[31]; 0.25 h
  ED50: 1.6 mg/kg
[32]
  AUC(0-t) at 24 h: 2830 ng·h/mL
[33]
  Ratio IC50: > 500
